For data set [1], the target named is T1, HIV reverse transcriptase (Human immunodeficiency virus type 1 group M subtype B, UniProt P03366).
T1 construct: Recombinant HIV reverse transcriptase; made in house
Put plainly: HIV reverse transcriptase inhibition (TCA precipitation assay / scintillation proximity assay). Format: biochemical. As for the experimental part: 5. Reverse Transcriptase Activity
RT inhibition was determined by a TCA precipitation assay as follows:
TCA-precipitation assay for HIV reverse transcriptase.
A heteropolymeric primer template was prepared by hybridizing a 691 nucleotide RNA molecule derived from the gag region of HIV [(+)-GAG^691, prepared as described in Mizrahi, V., Biochemistry, 28:9088-9094 (1989)], to a synthetic oligodeoxynucleotide (sequence: 5'-[…]-3'). The primer template (10 nM) was incubated in reaction buffer (50 mM Tris-HCl, pH 7.8, 80 mM KCl, 6 mM MgCl2, 10 mM DTT, 0.01 mg/ml BSA) with inhibitor, 10 μM dGTP, 10 μM dATP, and 28 μCi/ml of [3H]TYP (Amersham). Recombinant HIV reverse transcriptase (prepared as described in Mizrahi, et al., Arch. Biochem. Biophys., 273: 347-358, (1989)) was added to a concentration of 2-8 nM, and the reaction was incubated for 15 min at 37° C. (total reaction volume, 50 μL). The reaction was terminated with 50 μL of 20% TCA in 100 mM sodium pyrophosphate (ice cold) and chilled on ice for 15-30 min. The reaction mixture was filtered through glass fiber filters using a cell harvester, and the radioactivity that adhered to the filter was quantified using an LKB betaplate counter.
Scintillation proximity assay for HIV reverse tanscriptase.
HIV reverse transcriptase SPA enzyme assay system kits were obtained from Amersham (item number NK8972) and used as described in the package insert. Briefly, 10 μL of primer-template as supplied in the kit was added to 70 μL of dNTP/[3H]TTP solution. Ten μL of the inhibitor to be tested was added, followed by recombinant HIV RT (prepared as above) to a concentration of 2 nM. The reaction mixture was incubated for 10 min at room temperature and then terminated with 40 μL of 0.5M EDTA. Ten μL of streptavidin-SPA beads were added to each tube and the incorporated radioactivity was measured in an LKB betaplate counter.

Data set [2] is described as follows: Cellular cytotoxicity in Molt4 cells. Format: cell-based. To be noted: human, Measured via XTT. As for the experimental part: Cytotoxicity was tested with the CD4+cell line, Molt4. The compounds of the present invention were dissolved in DMSO in order to maximize solubility and provide a common solvent system. […] Cytotoxicity was measured as the inhibition of ^3 H-thymidine incorporation into the host cell's genome after exposure to the compounds of the present invention.
(Tetrazolium assays rely on reduction of a dye to a coloured formazan, in cell work by metabolically active cells.)

The target in data set [3] is T2, HIV RT in which amino acid #181 was changed from tyrosine to cysteine (Human immunodeficiency virus type 1 BH10, UniProt P03366, Y780C).
T2 construct: wild type recombinant per Mizrahi 1989
Put plainly: Inhibition of TIBO-resistant mutant HIV RT, amino acid #181 tyrosine to cysteine. It is filed as biochemical. The note with it: Tyr181 to cysteine mutant.

For data set [4], the target named is T3, HIV RT in which amino acid #181 was changed from tyrosine to isoleucine (Human immunodeficiency virus type 1 BH10, UniProt P03366, Y780I).
T3 construct: wild type recombinant per Mizrahi 1989
The data set is described as follows: Inhibition of TIBO-resistant mutant HIV RT, amino acid #181 tyrosine to isoleucine. The note with it: Tyr181 to isoleucine mutant. It is filed as biochemical.

The test system of another data set is HIV-1 (IIIB Stock). Put plainly: HIV-1 infectivity inhibition assay (Molt4 cells). To be noted: for IC50: read-out: IC50 (50% Inhibitory concentration for cytopathicity by HIV); for Selective Index (Cytotoxycity/IC50 ratio): cytotoxicity/IC50 ratio, 10080 min. It is filed as cell-based. As for the experimental part: 6. HIV-1 Infectivity Inhibition Assay
In addition, the compounds of the present invention were assayed via a virus neutralization, or HIV infectivity assay as follows:
Bulk Infection of Molt4 Cells.
Bulk infection is used to overcome variations inherent in individual well infections. Sufficient cells and diluted virus stock for an experiment are mixed together in a T-75 flask (Corning) so that the following ratio per well of virus and cells is maintained: 100 μl containing 45 TCID50 of virus (IIIB Stock) mixed with 100 μl of Molt4 cells (3×10^4 cells/well or 3×10^5 /ml). Virus is allowed to adsorb for 90 min. at 37° C. in CO2 incubator. […] of cell/virus mixture is then aliquoted into individual wells of a 24-well plate.
Appropriate 1/200 volumes of inhibitor dilutions at 200X final concentrations in 100% DMSO are added [i.e., to the 497.5 μl of virus infected cells, 2.5 μl of inhibitor dilution of 100% DMSO or 100% DMSO alone (for virus controls) is carefully added to appropriate wells]. Dilution series are generally 5-fold dilutions starting from 50 μg/ml.
Cultures are fed with RPMI 1640+20% FBS containing 1× concentration of inhibitor series (i.e., starting concentrations present at beginning of experiment) at the following times and volumes:
(Final volume in each well=1.5 ml)
Culture supernatants are harvested at 7 days post infection. Generally 90 μl of culture medium is transferred into a 96-well culture plate containing 10 μl 5% Triton X-100 in PBS. The plate is sealed, wiped with gauze saturated with 70% ethanol+detergent and stored at -80° C. until Micro RTs or p24 ELISAs are done. The results of HIV infectivity,inhibition is presented below:
^2 50% Inhibitory concentration for cytopathicity by HIV

In data set [5] the test system is human immunodeficiency virus-1 reverse transcriptase (HIV-1 RT). The note with it: literature, Kashman et al. 1992; cited from earlier work.
Where [6] appears, read: recombinant HIV RT, RT inhibition results table of Example 5, read-out: IC50.
The mark [7] stands for this setting: Compounds 22 and 23, Example 7, read-out: Reverse Transcriptase Activity: IC50.
Setting [8] is: Human immunodeficiency virus 1, IIIB, MOLT-4, 168 h.

Read-outs that look alike come from different tables or passages of the source.

By CC50 is commonly meant the concentration giving 50% cytotoxicity. A low value points to greater toxicity to the cells. As for `C[C@@H]1[C@H](O)c2c(c3c(c4c(-c5ccccc5)cc(=O)oc24)OC(C)(C)C=C3)O[C@@H]1C` [Inophyllum A], in data set [1] (setting [6]), the IC50 amounted to 9 µM. Moreover, in data set [2], the CC50 was 33 µM.

For the molecule `C[C@H]1Oc2c3c(c4c(-c5ccccc5)cc(=O)oc4c2C(=O)[C@@H]1C)OC(C)(C)C=C3` [Inophyllum C], the IC50 in data set [1] (setting [6]) was > 50 µM. The molecule further registered a CC50 in data set [2] of 18 µM.

In the case of `C[C@H]1[C@@H](C)Oc2c3c(c4c(-c5ccccc5)cc(=O)oc4c2[C@@H]1O)OC(C)(C)C=C3` [Inophyllum D], the IC50 in data set [1] (setting [6]) was 30 µM. This molecule came in with a CC50 in data set [2] of 15 µM.

`CCCc1cc(=O)oc2c3c(c4c(c12)OC(C)(C)C=C4)O[C@@H](C)C[C@@H]3O` (relative stereo) [Compound 22]: in data set [1] (setting [7]), the IC50 amounted to 1.78 µM.

As for `C[C@@H]1[C@H](O)c2c(c3c(c4c(-c5ccccc5)cc(=O)oc24)O[C@H]2[C@@H]3C2(C)C)O[C@@H]1C` [Inophyllum G2], in data set [1] (setting [6]), the IC50 was > 50 µM.

As for `C[C@H]1[C@H](O)c2c(c3c(c4c(-c5ccccc5)cc(=O)oc24)OC(C)(C)C=C3)O[C@@H]1C` [Inophyllum B], in data set [1], the “activity in the RT-ase assay (in words)” value is “sub-micromolar activity”. The IC50 turned out to be 0.3 µM in data set [1] (setting [6]) and 1.4 µM with HIV-1 (IIIB Stock) (setting [8]). Further, the “inhibition of mutant HIV RT relative to wild-type (in words)” value in data set [3] and in data set [4] was “potency comparable to that observed with wild-type HIV RT” throughout. Moreover, half-maximal cytotoxicity in data set [2] (CC50) was put at 55 µM. In addition, the “Selective Index (Cytotoxycity/IC50 ratio)” value in the data set with HIV-1 (IIIB Stock) is on record as 39.

For `CCCc1cc(=O)oc2c3c(c4c(c12)OC(C)(C)C=C4)O[C@@H](C)C[C@H]3O` (relative stereo) [Compound 23], the IC50 in data set [1] (setting [7]) worked out at 0.6 µM.

For the molecule “tetrahydro-imidazo[4,5,1-jk][1,4]-benzodiazepin-2-(1H)-one and -thione [TIBO, reference compound]”, the IC50 with HIV-1 (IIIB Stock) (Molt4 cells, harvest 7 days post infection) was 0.19 µM. For the same molecule, the “Selective Index (Cytotoxycity/IC50 ratio)” value in the data set on HIV-1 (IIIB Stock) is recorded as 100.

Turning to `C/C=C(\C)C(=O)c1c(OC)c2c(c3c(-c4ccccc4)cc(=O)oc13)OC(C)(C)C=C2` [Calophyllolide], the IC50 in data set [1] (setting [6]) was > 50 µM. This molecule also had a CC50 in data set [2] of 4.5 µM.

Take `C[C@@H]1C(=O)c2c(c3c(c4c(-c5ccccc5)cc(=O)oc24)OC(C)(C)C=C3)O[C@@H]1C` [Inophyllum E]: in data set [1] (setting [6]), the IC50 was > 50 µM. In data set [2], this molecule displayed a CC50 of 6.2 µM.

Turning to `CCCc1cc(=O)oc2c3c(c4c(c12)OC(C)(C)C=C4)O[C@H](C)[C@@H](C)[C@@H]3O` (relative stereo) [(±)-20, (±)-Calanolide A], the “HIV-1 RT-inhibitory potency compared with natural calanolide A (in words)” value in data set [1] (synthetic racemate vs data reported for natural calanolide A) is “in full agreement with the data reported for natural calanolide A”.

Turning to `C[C@@H]1[C@H](O)c2c(c3c(c4c(-c5ccccc5)cc(=O)oc24)O[C@@H]2[C@H]3C2(C)C)O[C@@H]1C` [Inophyllum G1], in data set [1] (setting [6]), the IC50 is > 50 µM.

For `CCCc1cc(=O)oc2c3c(c4c(c12)OC(C)(C)C=C4)O[C@H](C)[C@@H](C)[C@@H]3O` [Calanolide A], the “inhibition of HIV-1 RT (in words)” value in data set [5] was “potent inhibitor”.

In the case of `C[C@@H]1[C@@H](C)Oc2c3c(c4c(-c5ccccc5)cc(=O)oc4c2[C@@H]1O)OC(C)(C)C=C3` [Inophyllum P], the “activity in the RT-ase assay (in words)” value in data set [1] is recorded as “sub-micromolar activity”. Besides, the IC50 was found to be 0.6 µM in data set [1] (setting [6]) and 1.6 µM in the data set with HIV-1 (IIIB Stock) (setting [8]). Besides, the “inhibition of mutant HIV RT relative to wild-type (in words)” value in data set [3] and in data set [4] was “potency comparable to that observed with wild-type HIV RT” throughout. The molecule also gave a CC50 in data set [2] of 25 µM. Also, the “Selective Index (Cytotoxycity/IC50 ratio)” value in the data set on HIV-1 (IIIB Stock) was 16.

The values are drawn from patent US5723631A, “Coumarin derivatives as retroviral inhibitors” (SmithKline Beecham Corporation, priority 1995, dated 1998).
